Laboratory results: the supplement of paper PMC10307832

Key:
Assay in all cases: relative viability (nuclei count vs DMSO), 5 days (fraction); higher = more cells survive
Motesanib + Linsitinib = compound: CC1(C)CNc2cc(NC(=O)c3cccnc3NCc3ccncc3)ccc21 [Motesanib] + C[C@]1(O)C[C@@H](c2nc(-c3ccc4ccc(-c5ccccc5)nc4c3)c3c(N)nccn32)C1 [Linsitinib] (partner 1 µM)
Procedure, shortened: (§1)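 Relative viability divides the nuclei count in treated wells by that in vehicle wells. Lung cancer cell lines were seeded in 1536-well plates, dosed by pin tool the next day, and fixed and stained after 5 days in one step with final 0.05% Triton X-100, 1% formaldehyde and 1 ug/ml Hoechst. Dosing was a single drug or a fixed anchor-drug dose plus five library-drug doses (not always all listed) in √10 steps, and values are medians of duplicate plates imaged at 4×.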

[1] = compound: C[C@@]1(C(=O)Nc2ccc(F)nc2)CCCN1c1nc(Nc2cc(C3CC3)n[nH]2)c2cccn2n1 + C[C@@H](Oc1cc(-c2cnn(C3CCNCC3)c2)cnc1N)c1c(Cl)ccc(F)c1Cl [Crizotinib] (partner 1 µM)
Procedure, shortened: as §1

[2] = compound: C[C@@]1(C(=O)Nc2ccc(F)nc2)CCCN1c1nc(Nc2cc(C3CC3)n[nH]2)c2cccn2n1 + Nc1nc2[nH]cc(CCc3ccc(C(=O)N[C@@H](CCC(=O)O)C(=O)O)cc3)c2c(=O)[nH]1 [Pemetrexed] (partner 0.2 µM)
Procedure, shortened: as §1

[3] = compound: C[C@@]1(C(=O)Nc2ccc(F)nc2)CCCN1c1nc(Nc2cc(C3CC3)n[nH]2)c2cccn2n1 + O=C(c1cc(Cc2n[nH]c(=O)c3ccccc23)ccc1F)N1CCN(C(=O)C2CC2)CC1 [Olaparib] (partner 8 µM)
Procedure, shortened: as §1

| Cell Line | relative viability (Motesanib + Linsitinib; first compound 0.01 µM) | relative viability (Motesanib + Linsitinib; first compound 0.03162 µM) | relative viability (Motesanib + Linsitinib; first compound 0.1 µM) | relative viability (Motesanib + Linsitinib; first compound 0.3162 µM) | relative viability (Motesanib + Linsitinib; first compound 1 µM) | relative viability ([1]; first compound 0.04 µM) | relative viability ([1]; first compound 0.1265 µM) | relative viability ([1]; first compound 0.4 µM) | relative viability ([1]; first compound 1.265 µM) | relative viability ([2]; first compound 0.04 µM) | relative viability ([2]; first compound 0.1265 µM) | relative viability ([2]; first compound 0.4 µM) | relative viability ([2]; first compound 1.265 µM) | relative viability ([3]; first compound 0.04 µM) | relative viability ([3]; first compound 0.1265 µM) | relative viability ([3]; first compound 0.4 µM) | relative viability ([3]; first compound 1.265 µM) |
| --- | --- | --- | --- | --- | --- | --- | --- | --- | --- | --- | --- | --- | --- | --- | --- | --- | --- |
| LCLC-97TM1 | 0.171 | 0.164 | 0.2 | 0.182 | 0.2 | 0.184 | 0.186 | 0.12 | 0.187 | 0.137 | 0.155 | 0.149 | 0.143 | 0.142 | 0.133 | 0.1 | 0.229 |
| NCI-H596 | 1.1 | 0.937 | 1.08 | 1.12 | 1.08 | 1.05 | 0.984 | 0.857 | 1.06 | 0.494 | 0.497 | 0.431 | 0.487 | 0.714 | 0.697 | 0.608 | 0.571 |
| H3255 | 0.949 | 1.02 | 0.913 | 1.06 | 0.871 | 0.865 | 0.979 | 0.793 | 0.924 | 0.602 | 0.523 | 0.528 | 0.484 | 0.638 | 0.643 | 0.523 | 0.548 |
| SK-MES-1 | 1.06 | 1.09 | 1.1 | 1.08 | 1.08 | 1.09 | 0.84 | 0.861 | 0.879 | 0.948 | 0.93 | 0.838 | 0.796 | 0.718 | 0.702 | 0.557 | 0.373 |
| NCI-H1437 | 0.972 | 1.08 | 1.01 | 1.01 | 1.13 | 0.932 | 0.714 | 0.561 | 0.762 | 0.246 | 0.242 | 0.242 | 0.284 | 0.666 | 0.631 | 0.576 | 0.59 |
| LU99A | 0.496 | 0.565 | 0.537 | 0.511 | 0.594 | 0.391 | 0.415 | 0.39 | 0.233 | 0.187 | 0.165 | 0.183 | 0.165 | 0.292 | 0.227 | 0.231 | 0.276 |
| HCC-827 | 0.983 | 0.916 | 1 | 1.05 | 0.951 | 0.897 | 0.899 | 0.901 | 0.9 | 0.264 | 0.284 | 0.244 | 0.277 | 0.663 | 0.769 | 0.55 | 0.716 |
| LK-2 | 0.426 | 0.44 | 0.369 | 0.623 | 0.582 | 0.208 | 0.335 | 0.224 | 0.159 | 0.175 | 0.195 |  | 0.156 | 0.38 | 0.287 | 0.29 | 0.35 |
| HCC-366 | 0.639 | 0.589 | 0.656 | 0.666 | 0.79 | 0.612 | 0.442 | 0.388 | 0.0918 | 0.21 | 0.245 | 0.212 | 0.163 | 0.364 | 0.256 | 0.254 | 0.215 |
| BEN | 0.932 | 0.842 | 1.08 | 0.886 | 1.05 | 0.773 | 1.19 | 0.59 | 0.999 | 0.919 | 0.65 | 0.616 | 0.653 | 1.09 | 1.14 | 0.97 | 0.988 |
| NCI-H23 | 0.582 | 0.609 |  | 0.56 | 0.527 | 0.49 | 0.292 | 0.2 | 0.35 | 0.506 | 0.437 | 0.399 | 0.312 | 0.252 | 0.227 | 0.225 | 0.21 |
| 201T | 1 | 1.09 | 1.03 | 1.05 | 1.02 | 0.993 | 0.943 | 0.933 | 0.973 | 0.324 | 0.285 | 0.294 | 0.304 | 0.755 | 0.725 | 0.729 | 0.9 |
| NCI-H460 | 0.836 | 0.817 | 0.726 | 0.899 | 0.744 | 0.985 | 0.699 | 0.639 | 0.331 | 0.0607 | 0.0684 | 0.0535 | 0.0527 | 0.495 | 0.334 | 0.346 | 0.23 |
| NCI-H661 | 0.518 | 0.528 | 0.559 | 0.593 | 0.495 | 0.983 |  | 1.01 |  | 0.918 | 0.909 | 0.796 | 0.899 | 0.742 | 0.849 | 0.778 | 0.634 |
| HCC-15 | 0.928 | 0.801 | 0.922 | 0.992 | 0.926 | 0.749 | 0.63 | 0.66 | 0.714 | 0.216 | 0.225 | 0.209 | 0.211 | 0.663 | 0.614 | 0.611 | 0.635 |
| LCLC-103H |  | 1.1 | 1.12 | 1.09 | 1.02 | 1.07 | 1.01 | 0.904 | 1.04 | 0.49 | 0.509 | 0.44 | 0.41 | 0.716 | 0.655 | 0.518 | 0.762 |
| NCI-H441 | 0.519 | 0.545 | 0.626 | 0.603 | 0.875 | 0.603 | 0.704 | 0.553 | 0.527 | 0.246 | 0.261 | 0.243 | 0.267 | 0.373 | 0.368 | 0.345 | 0.332 |
| EPLC-272H | 1.23 | 1.26 | 1.26 | 1.24 | 1.38 | 0.977 | 0.857 | 0.676 | 1.16 | 0.358 | 0.291 | 0.349 | 0.23 | 0.792 | 0.513 | 0.489 | 0.571 |
